According to US3933834A, “Unsymmetrical esters of N-substituted 1,4-dihydropyridine 3,5-dicarboxylic acid” (Bayer Aktiengesellschaft, priority 1972, dated 1976):

Columns and labels:
[1] = toxicity (LD50) measured on mice by peroral administration; conditions: mouse, in vivo, po
[2] = test system: hypertensive rats; assay: hypotensive activity: blood pressure of hypertensive rats after peroral administration; type: in vivo; conditions: Rattus norvegicus, po, read-out: Peroral Dose: lowest dose which results in at least a 15 mm Hg reduction in blood pressure
Source text: The hypotensive activity of the present compounds can be observed by measuring the blood pressure of hypertensive rats following administration of the compounds.

[3] = test system: coronary vessels; assay: coronary vessel dilation: rise in oxygen saturation in the coronary sinus in the narcotized, heart-catheterized dog; type: in vivo; conditions: intravenous
Source text: They can accordingly be used where either or both of these effects are desired. Thus upon parenteral, oral or sublingual administration, the compounds produce a distinct and long lasting dilation of the coronary vessels which is intensified by a simultaneous nitrite-like effect of reducing the load on the heart. […] The effect on heart metabolism is thus one of energy saving. In addition, the compounds lower the blood pressure of normotonic and hypertonic animals and can thus be used as antihypertensive agents. These properties can be conveniently observed in well known laboratory models. Thus, for example, the coronary vessel dilation effect of the compounds of the invention was compared with the action of Persantin by measuring the rise in oxygen saturation in the coronary sinus in the narcotized, heart-catheterized dog, with the results reported in Table I, below.
^1 Dose given in mg/kg. body weight, administered intravenously;
^2 O2 rise given as % rise in oxygen saturation;
^3 Reversion time given is time in hours for reversion to the initial

With `CCOC(=O)C1=C(C)N(C)C(C)=C(C(=O)OC)C1c1cccc([N+](=O)[O-])c1` (centres unmarked) [Example 1, 1,2,6-trimethyl-4-(3'-nitrophenyl)-1,4-dihydropyridine-3,5-dicarboxylic acid 3-methyl-ester-5-ethyl-ester] the LD50 [1] was 3000 mg/kg and the minimal effective dose [2] was 0.3 mg/kg.
With `COC(=O)C1=C(C)N(C)C(C)=C(C(=O)OC(C)C)C1c1cccc([N+](=O)[O-])c1` (centres unmarked) [Example 2, 1,2,6-trimethyl-4-(3'-nitrophenyl)-1,4-dihydropyridine-3,5-dicarboxylic acid 3-methyl-ester-5-isopropyl-ester] the LD50 [1] was 3000 mg/kg, the minimal effective dose [2] was 1 mg/kg and the “O2 % Rise (rise in oxygen saturation in the coronary sinus)” value (“O2 % Rise” below) ([3]; 0.01 mg/kg) was 31%. The “Reversion time (to the initial value)” value ([3]; 0.01 mg/kg) was > 3.5 h.
For `CCOC(=O)C1=C(C)N(C)C(C)=C(C(=O)OC(C)C)C1c1cccc([N+](=O)[O-])c1` (centres unmarked) [Example 3, 1,2,6-trimethyl-4-(3'-nitrophenyl)-1,4-dihydropyridine-3,5-dicarboxylic acid 3-ethyl-ester-5-isopropyl-ester], the LD50 [1] was 3000 mg/kg, the minimal effective dose [2] was 0.3 mg/kg and the “O2 % Rise” value ([3]; 0.1 mg/kg) was 39%. For the same compound, the “Reversion time (to the initial value)” value ([3]; 0.1 mg/kg) was > 6 h.
For `C=CCOC(=O)C1=C(C)N(C)C(C)=C(C(=O)OCC)C1c1ccccc1C#N` (centres unmarked) [Example 6, 1,2,6-trimethyl-4-(2'-cyanophenyl)-1,4-dihydropyridine-3,5-dicarboxylic acid 3-ethyl-ester-5-allyl-ester], the minimal effective dose [2] was 0.3 mg/kg, the “O2 % Rise” value ([3]; 0.05 mg/kg) was 39% and the “Reversion time (to the initial value)” value ([3]; 0.05 mg/kg) was > 4 h.
In the case of `OCCN(CCO)c1nc(N2CCCCC2)c2nc(N(CCO)CCO)nc(N3CCCCC3)c2n1` [Persantin, reference compound], the “O2 % Rise” value ([3]; 0.3 mg/kg) is reported as 23%, the “Reversion time (to the initial value)” value ([3]; 0.3 mg/kg) is reported as 1 to 2 h and the “O2 % Rise” value ([3]; 0.4 mg/kg) is reported as 34%. The “Reversion time (to the initial value)” value ([3]; 0.4 mg/kg) was 1 to 2 h.
